According to US6737383B1, “Herbicidal oxadiazolidines” (priority 1999, dated 2004):

What was measured:
soybean = assay: Test B pre/postemergence soybean; format: in vivo, Glycine max; details: for Soybean plant response rating: scale of 0 to 10 where 0 is no effect and 10 is complete control
How it was run: (§1)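 Test chemicals in a non-phytotoxic solvent mixture with surfactant were sprayed preemergence onto planted seeds and postemergence onto plants 2 to 18 cm tall (1- to 4-leaf stage). After twelve to sixteen days in a greenhouse, injury was visually rated against untreated controls from 0 (no effect) to 10 (complete control).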

giant foxtail = assay: Test B pre/postemergence giant foxtail; format: in vivo, Setaria faberii; details: for Giant foxtail plant response rating: scale of 0 to 10 where 0 is no effect and 10 is complete control
How it was run: as §1

velvetleaf = assay: Test B pre/postemergence velvetleaf; format: in vivo, Abutilon theophrasti; details: for Velvetleaf plant response rating: scale of 0 to 10 where 0 is no effect and 10 is complete control
How it was run: as §1

bedstraw = assay: Test B pre/postemergence bedstraw; format: in vivo, Galium aparine; details: for Bedstraw plant response rating: Rate 500 g/ha, scale of 0 to 10 where 0 is no effect and 10 is complete control
How it was run: as §1

crabgrass = assay: Test B pre/postemergence crabgrass; format: in vivo, Digitaria sanguinalis; details: for Crabgrass plant response rating: scale of 0 to 10 where 0 is no effect and 10 is complete control
How it was run: as §1

cocklebur = assay: Test B pre/postemergence cocklebur; format: in vivo, Xanthium strumarium; details: for Cocklebur plant response rating: scale of 0 to 10 where 0 is no effect and 10 is complete control
How it was run: as §1

pigweed = assay: Test B pre/postemergence pigweed; format: in vivo, Amaranthus retroflexus; details: for Redroot pigweed plant response rating: scale of 0 to 10 where 0 is no effect and 10 is complete control
How it was run: as §1

purple nutsedge = assay: Test B pre/postemergence purple nutsedge; format: in vivo, Cyperus rotundus; details: for Nutsedge plant response rating: scale of 0 to 10 where 0 is no effect and 10 is complete control
How it was run: as §1

blackgrass = assay: Test B pre/postemergence blackgrass; format: in vivo, Alopecurus myosuroides; details: for Blackgrass plant response rating: scale of 0 to 10 where 0 is no effect and 10 is complete control
How it was run: as §1

[1] = Postemergence, Rate 250 g/ha, scale 0 to 10, 0 is no effect, 10 is complete control
[2] = Preemergence, Rate 62 g/ha, scale 0 to 10 (0 no effect, 10 complete control)
[3] = Postemergence, Rate 125 g/ha, scale 0 to 10, 0 is no effect, 10 is complete control

CCCCCCn1c(=O)on(C(=O)N(c2ccc(F)cc2)C(C)C)c1=O [Compound 389]
4: Plant response rating, Crabgrass (crabgrass; [1]) | Redroot pigweed plant response rating (pigweed; Preemergence, Rate 250 g/ha)
5: Plant response rating, Bedstraw (bedstraw; [1])
6: Plant response rating, Blackgrass (blackgrass; [1]) | Blackgrass plant response rating (blackgrass; Postemergence, Rate 500 g/ha) | Blackgrass plant response rating (blackgrass; Preemergence, Rate 250 g/ha)
10: Giant foxtail plant response rating (giant foxtail; Preemergence, Rate 250 g/ha) | Giant foxtail plant response rating (giant foxtail; Preemergence, Rate 500 g/ha) | Bedstraw plant response rating (bedstraw; Preemergence) | Crabgrass plant response rating (crabgrass; Preemergence, Rate 500 g/ha) | Redroot pigweed plant response rating (pigweed; Preemergence, Rate 500 g/ha)
1: Plant response rating, Crabgrass (crabgrass; [2])
9: Crabgrass plant response rating (crabgrass; Preemergence, Rate 250 g/ha) | Blackgrass plant response rating (blackgrass; Preemergence, Rate 500 g/ha)
3: Soybean plant response rating (soybean; Postemergence, Rate 500 g/ha) | Soybean plant response rating (soybean; Preemergence, Rate 500 g/ha) | Plant response rating, Crabgrass (crabgrass; [3])
2: Plant response rating, Soybean (soybean; [1]) | Soybean plant response rating (soybean; Rate 62 g/ha, Postemergence) | Plant response rating, Giant foxtail (giant foxtail; [3]) | Plant response rating, Giant foxtail (giant foxtail; [2]) | Velvetleaf plant response rating (velvetleaf; Preemergence, Rate 500 g/ha) | Crabgrass plant response rating (0 to 10 scale) (crabgrass; Preemergence, Rate 125 g/ha) | Blackgrass plant response rating (0 to 10 scale) (blackgrass; Preemergence, Rate 125 g/ha)
0: Plant response rating, Soybean (soybean; [2]) | Soybean plant response rating (0 to 10 scale) (soybean; Preemergence, Rate 125 g/ha) | Soybean plant response rating (soybean; Preemergence, Rate 250 g/ha) | Giant foxtail plant response rating (giant foxtail; Rate 62 g/ha, Postemergence) | Plant response rating, Velvetleaf (velvetleaf; [1]) | Velvetleaf plant response rating (velvetleaf; Postemergence, Rate 500 g/ha) | Plant response rating, Velvetleaf (velvetleaf; [2]) | Velvetleaf plant response rating (0 to 10 scale) (velvetleaf; Preemergence, Rate 125 g/ha) | Velvetleaf plant response rating (velvetleaf; Preemergence, Rate 250 g/ha) | Velvetleaf plant response rating (velvetleaf; Rate 62 g/ha, Postemergence) | Crabgrass plant response rating (crabgrass; Rate 62 g/ha, Postemergence) | Plant response rating, Cocklebur (cocklebur; [3]) | Plant response rating, Cocklebur (cocklebur; [1]) | Cocklebur plant response rating (cocklebur; Postemergence, Rate 500 g/ha) | Plant response rating, Cocklebur (cocklebur; [2]) | Cocklebur plant response rating (0 to 10 scale) (cocklebur; Preemergence, Rate 125 g/ha) | Cocklebur plant response rating (cocklebur; Preemergence, Rate 250 g/ha) | Cocklebur plant response rating (cocklebur; Preemergence, Rate 500 g/ha) | Cocklebur plant response rating (cocklebur; Rate 62 g/ha, Postemergence) | Plant response rating, Redroot pigweed (pigweed; [1]) | Plant response rating, Redroot pigweed (pigweed; [2]) | Redroot pigweed plant response rating (0 to 10 scale) (pigweed; Preemergence, Rate 125 g/ha) | Redroot pigweed plant response rating (pigweed; Rate 62 g/ha, Postemergence) | Plant response rating, Nutsedge (purple nutsedge; [1]) | Nutsedge plant response rating (purple nutsedge; Postemergence, Rate 500 g/ha) | Plant response rating, Nutsedge (purple nutsedge; [2]) | Nutsedge plant response rating (0 to 10 scale) (purple nutsedge; Preemergence, Rate 125 g/ha) | Nutsedge plant response rating (purple nutsedge; Preemergence, Rate 250 g/ha) | Nutsedge plant response rating (purple nutsedge; Preemergence, Rate 500 g/ha) | Nutsedge plant response rating (purple nutsedge; Rate 62 g/ha, Postemergence) | Plant response rating, Blackgrass (blackgrass; [3]) | Plant response rating, Blackgrass (blackgrass; [2])
8: Giant foxtail plant response rating (giant foxtail; Postemergence, Rate 500 g/ha) | Giant foxtail plant response rating (0 to 10 scale) (giant foxtail; Preemergence, Rate 125 g/ha)
7: Plant response rating, Giant foxtail (giant foxtail; [1]) | Bedstraw plant response rating (bedstraw; Postemergence) | Crabgrass plant response rating (crabgrass; Postemergence, Rate 500 g/ha) | Redroot pigweed plant response rating (pigweed; Postemergence, Rate 500 g/ha)
